These results are taken from patent publication US10603335B2, “Cancer treatment combination compositions, methods and uses” (Board of Supervisors of Louisiana State University and …, priority 2016, dated 2020).

The test system of series [1] is cleaved PARP, XIAP and cIAP2 in MiaPaca-2 cells. The series is described as follows: Western blot of apoptosis markers and inhibitors of apoptosis, MiaPaca-2. The note with it: for apoptosis marker cleaved PARP: 24 h post-treatment, LHRH-curcumin 10-100 uM, gemcitabine 1-20 uM. The class given is cell-based, human. As to the method: (§1) Pancreatic cells were collected after trypsinization and seeded in 12-well plates for 24 h before treatments. Treatments were performed as described in the Figure legends. Following treatment, whole cell lysates were collected in Laemmli buffer and analyzed by Western blot. The following primary antibodies were used: XIAP, c-IAP2, cleaved PARP, Caspase-3 (all from Cell Signaling), actin (Santa Cruz) and LHRHR (Abcam).
(§2) Western blot analysis. Actin, GAPDH and Ponceau staining were used as loading controls. Gemcitabine was diluted in water. Curcumin and LHRH-curcumin were diluted in DMSO. Cells were treated as follows:
Western blot analysis. Actin, GAPDH and Ponceau staining were used as loading controls. Gemcitabine was diluted in water. Curcumin and LHRH-curcumin were diluted in DMSO. The cells were treated as follows:
Western blot analysis. Actin was used as loading control. Both gemcitabine and LHRH-curcumin were diluted in water.
On the technique in general: A western blot detects proteins with antibodies after separation by electrophoresis.

Series [2] deals with cleaved PARP, XIAP and cIAP2 in BxPC-3 cells. The series is described as follows: Western blot of apoptosis markers and inhibitors of apoptosis, BxPC-3. The class given is cell-based. As to conditions: for XIAP and c-IAP2 protein levels: 24 h; for apoptosis marker cleaved PARP: 24 h post-treatment, LHRH-curcumin 10-100 uM, gemcitabine 1-20 uM. As to the method: as §1, §2
Western blot analysis. Actin, GAPDH and Ponceau staining were used as loading controls. Gemcitabine was diluted in water. Curcumin and LHRH-curcumin were diluted in DMSO.

Series [3] has as its system Mia-PaCa-2 cancer cell xenografts. In words: Mia-PaCa-2 subcutaneous xenograft tumor growth. The class given is in vivo, SCID/bg mice. The note with it: IP. As to the method: (§3) Male SCID/bg mice (5 weeks old; Taconic Biosciences, NY) were housed in the standard mouse Plexiglas cages in a room maintained at constant temperature and humidity under a 12 h light and darkness cycle. The experimental protocol was reviewed and approved by the Institutional Animal Care and Use Committee at the LSUHSC Shreveport.
Mia-PaCa-2 cells were harvested from cell cultures after trypsinization. The cells were washed once in serum-free medium and re-suspended in HBSS. Only suspensions consisting of single cells with >90% viability were used for the injections. Mice were injected s.c. on the right hind flank with 5×10^6 MIA-PaCa cells (ATCC, VA) in 50% Matrigel/HBSS with 26 Ga syringes.
(§4) The vehicle treated group received an equivalent amount of PBS. Tumor volumes were measured with calipers once a week and body weights of mice were measured once a week. Tumor volumes were calculated by the formula: V(mm3)=(length×width*2)/2, in which width was the shortest measurement in millimeters. Mice were necropsied 10 days after the last treatment for the low dose treatment (day 35 after the randomization and day 55 from the tumor cell implantation) or 2 days after the last treatment for high dose treatment (day 28 after the randomization and 48 from the tumor cell implantation). Tumors were dissected, weighed and photographed.

The nature of series [4]: Body weight of tumor-bearing mice during treatment. As to conditions: IP. As to the method: as §3, §4
Series [5] deals with cleaved PARP, XIAP and cIAP2 in PATC53 cells. In words: Western blot of apoptosis markers, PATC53. Type of series: cell-based. As to the method: PATC53 cells were treated as described and Western blot was perform in order to detect apoptosis markers (cleaved PARP) and inhibitors of apoptosis (XIAP and cIAP2) 24 h post-treatment. Actin was used as loading controls.
PATC53 cells were treated as presented and Western blot was perform in order to detect apoptosis markers (cleaved PARP) and inhibitors of apoptosis (XIAP and cIAP2) 48 h post-treatment. Actin was used as loading controls.
Pancreatic cancer cells were collected after trypsinization and seeded in 12-well plates for 24 h before treatments. Treatments were performed as described in the Figure legends. Following treatment whole-cell lysates were collected in Laemmli buffer and analyzed by Western blot. The following primary antibodies were used: cleaved PARP, c-IAP2, XIAP, cleaved Parp-1 (all from Cell Signaling), actin (Santa Cruz).

The test system of the next series is PATX153 tissue slices. In words: Live Tissue Sensitivity Assay (LTSA), PATX153. Type of series: cell-based. The note with it: 72 hours. As to the method: (§5) Animal experiment protocol was reviewed and approved by The University of Texas MD Anderson Cancer Center (Houston, Tex.) institutional review board and in accordance with the Guidelines for the Care and Use of Laboratory Animals published by the National Institutes of Health. PDXs were grown from cryopreserved early passages of PDXs in nude mice as described in previous publications (Kim M P, et al, Nat Protoc 2009; 4(11): 1670-80). Briefly, tumor samples stored in CryoStor™ CS10 storage medium were recovered and cut into about 2 mm3 fragments, soaked in Matrigel, and implanted into the subcutaneous space of Balb/c nude mice (5 mice/PDX). Tumors were harvested when they reach 1.5 cm in diameter for generating tissue slices for drug testing with quadruplicates.
(§6) About 100 tissue slices were produced from 1 tumorgraft with tissue slicer and arrayed in 96-well plates with previously established method (Roife D, et al, Clin Cancer Res 2016). […] Same volume of medium with 0.1% DMSO was added into control wells. After 72 hours, tissue viabilities were measured with PrestoBlue method. Viability inhibition will be calculated through normalization of viabilities of tissue slices treated with inhibitor against the viability of control (DMSO treated) slices. Inhibition of viability was further analyzed with t-test. […]

In the next series the test system is PATX176 tissue slices. The series is described as follows: Live Tissue Sensitivity Assay (LTSA), PATX176. Type of series: cell-based. As to conditions: 72 hours. As to the method: as §5, §6
In the next series the test system is PATX102 tissue slices. The series is described as follows: Live Tissue Sensitivity Assay (LTSA), PATX102. The note with it: 72 hours. Type of series: cell-based. As to the method: as §5, §6
Another series has as its system PATX173 tissue slices. The series is described as follows: Live Tissue Sensitivity Assay (LTSA), PATX173. Type of series: cell-based. The note with it: 72 hours. As to the method: as §5, §6
For a further series, the system named is PATX92 tissue slices. The series is described as follows: Live Tissue Sensitivity Assay (LTSA), PATX92. Type of series: cell-based. The note with it: 72 hours. As to the method: as §5, §6
Where [6] appears, read: 24 h, curcumin, LHRH-curcumin 50 uM and 100 uM alone, gemcitabine alone.
The mark [7] stands for this setting: curcumin, LHRH-curcumin 50 uM and 100 uM alone, gemcitabine alone.
Setting [8] is: high doses: gemcitabine 100 mg/kg once a week, LHRH-curcumin 40 mg/kg twice a week, day 48.
Setting [9] is: low doses: gemcitabine 50 mg/kg once a week, LHRH-curcumin 20 mg/kg twice a week, day 55.
[10] abbreviates: high doses: gemcitabine 100 mg/kg once a week, LHRH-curcumin 40 mg/kg twice a week.
The mark [11] stands for this setting: low doses: gemcitabine 50 mg/kg once a week, LHRH-curcumin 20 mg/kg twice a week.

As for `COc1cc(/C=C/C(=O)CC(=O)/C=C/c2ccc(OC(=O)CCCC(=O)NCCCC[C@@H](NC(=O)[C@H](Cc3ccc(O)cc3)NC(=O)[C@H](CO)NC(=O)[C@H](Cc3c[nH]c4ccccc34)NC(=O)[C@H](Cc3c[nH]cn3)NC(=O)[C@@H]3CCC(=O)N3)C(=O)N[C@@H](CC(C)C)C(=O)N[C@@H](CCCNC(=N)N)C(=O)N3CCC[C@H]3C(=O)NCC(N)=O)c(OC)c2)ccc1O` [LHRH-curcumin, [DLys6]-LHRH-Curcumin], the “XIAP and c-IAP2 protein levels” value is “down-regulated” in [1] (24 h, 50 uM in the presence of gemcitabine (5 uM)); “down-regulated” in series [1] (setting [6]); “down-regulated” in series [1] (72 h, LHRH-curcumin 10 uM and 20 uM in the presence of gemcitabine (5 uM and 10 uM)); “down-regulated” in series [2] (50 uM in the presence of gemcitabine (5 uM)); “down-regulated” in [2] (setting [7]). The “apoptosis marker cleaved PARP” value in [1] (curcumin) and in [2] (curcumin) was “initiate apoptosis as illustrated by the presence of cleaved PARP” in each case. The “Tumor volume at necropsy” value in [3] (setting [8]) and in series [3] (setting [9]) was “significantly reduced” in each case. The “body weight or body condition” value in [4] (setting [10]) and in series [4] (setting [11]) was “does not negatively impact body weight or body condition” each time. Also, the “apoptosis inhibitors (XIAP and cIAP2)” value in series [5] (48 h post-treatment, 30 μM) is listed as “Modest reduction of apoptosis inhibitors”. In addition, the “Sensitivity To LHRH-C” value was “Sensitive (The tissue was defined as sensitive to the treatment if both p<0.05 and at least 30% of tissue slice viability on average was inhibited)” with PATX153 tissue slices (single agent); “Resistant” with PATX176 tissue slices (single agent); “Resistant” with PATX102 tissue slices (single agent); “Resistant” with PATX173 tissue slices (single agent); “Resistant” in the series with PATX92 tissue slices (single agent).

`Nc1ccn([C@@H]2O[C@H](CO)[C@@H](O)C2(F)F)c(=O)n1` [gemcitabine, 2′,2′-difluoro 2′deoxycytidine, reference compound]: the “XIAP and c-IAP2 protein levels” value in series [1] (setting [6]) was “doesn't affect XIAP and c-IAP2 levels”; in series [2] (setting [7]), “doesn't affect XIAP and c-IAP2 levels”. For the same compound, the “apoptosis marker cleaved PARP” value in series [1] (curcumin) is given as “no cleaved PARP was detected”; in [2] (curcumin) it was “Low levels of cleaved PARP was detected”. For the same compound, the “Tumor volume at necropsy” value in series [3] (setting [8]) and in series [3] (setting [9]) was “significantly reduced” each time. Moreover, the “body weight or body condition” value in [4] (setting [10]) and in series [4] (setting [11]) was “does not negatively impact body weight or body condition” throughout. The “response of PATC53 cells (apoptosis markers)” value in series [5] (24 h post-treatment) is “resistance”. In addition, the tissue slice viability with PATX153 tissue slices (Gem 10 μM) is given as 96.86; in the series on PATX176 tissue slices (Gem 10 μM), 88.23; in the series on PATX102 tissue slices (Gem 10 μM), 99.65; in the series on PATX173 tissue slices (Gem 10 μM) it was 89.87; in the series with PATX92 tissue slices (Gem 10 μM), 85.63.
